This is an account of results in patent publication US20250215029A1 (Recludix Pharma, Inc., priority 2022, published 2025).

As usually defined, the IC50 is the midpoint of a concentration-inhibition curve.

Read-outs that look alike come from different tables or passages of the source.

The target of assay [1] is T1, Recombinant STAT3 protein (STAT3 (G127-I722)) (Homo sapiens, UniProt P40763).
T1 construct: Recombinant STAT3 protein (STAT3 (G127-I722))
The assay can be described thus: STAT3 Fluorescence Polarization (FP) Assay. It counts as binding. The following applies: STAT3 (G127-I722) 25 nM, probe 5-FAM-GpYLPQTV-NH2 2 nM, 45-minute incubation; read-out: STAT3 (FP assay IC50 class). The gist of the method:
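Displacement of a 2 nM 5-FAM-labelled pY peptide (GpYLPQTV) from 25 nM recombinant STAT3 (G127-I722) was monitored by fluorescence polarization. Incubation lasted 45 min at room temperature in pH 7.4 HEPES buffer containing 1% DMSO.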
(In general: In fluorescence polarisation assays a small probe gives low polarisation when free and higher when bound to something large.)

The target in assay [2] is T2, Recombinant STAT6 protein (STAT6 (W123-T658)) (Homo sapiens, UniProt P42226).
T2 construct: Recombinant STAT6 protein (STAT6 (W123-T658))
T2 sequence (P42226 123-658): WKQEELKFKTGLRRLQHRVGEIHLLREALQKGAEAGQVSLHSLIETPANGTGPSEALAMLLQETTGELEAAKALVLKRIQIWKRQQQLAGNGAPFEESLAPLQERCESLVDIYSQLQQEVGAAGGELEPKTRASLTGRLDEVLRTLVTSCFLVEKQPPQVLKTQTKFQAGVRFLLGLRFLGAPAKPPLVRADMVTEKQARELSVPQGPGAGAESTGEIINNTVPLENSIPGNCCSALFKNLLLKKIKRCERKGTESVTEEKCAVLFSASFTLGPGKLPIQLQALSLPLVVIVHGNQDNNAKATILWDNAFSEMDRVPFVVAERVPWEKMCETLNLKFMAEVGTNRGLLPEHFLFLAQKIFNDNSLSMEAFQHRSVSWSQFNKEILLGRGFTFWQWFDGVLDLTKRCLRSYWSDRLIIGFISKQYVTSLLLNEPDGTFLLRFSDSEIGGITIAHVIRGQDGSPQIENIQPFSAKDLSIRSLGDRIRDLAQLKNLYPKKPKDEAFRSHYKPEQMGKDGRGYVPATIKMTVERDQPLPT
Put plainly: STAT6 Fluorescence Polarization (FP) Assay. It counts as binding. The following applies: STAT6 (W123-T658) 250 nM, 45-minute incubation, read-out: STAT6 (FP assay IC50 class). The gist of the method:
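Protein-probe mix (250 nM STAT6 W123-T658, 2 nM 5-FAM-pTyr peptide) in 10 mM HEPES pH 7.4, 50 mM NaCl, 1 mM EDTA, 0.05% Tween 20, 2 mM DTT; added to compound dilution series, 1% DMSO final; 45 min RT; FP read; IC50 via nonlinear regression.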

T1 sequence (P40763 127-722): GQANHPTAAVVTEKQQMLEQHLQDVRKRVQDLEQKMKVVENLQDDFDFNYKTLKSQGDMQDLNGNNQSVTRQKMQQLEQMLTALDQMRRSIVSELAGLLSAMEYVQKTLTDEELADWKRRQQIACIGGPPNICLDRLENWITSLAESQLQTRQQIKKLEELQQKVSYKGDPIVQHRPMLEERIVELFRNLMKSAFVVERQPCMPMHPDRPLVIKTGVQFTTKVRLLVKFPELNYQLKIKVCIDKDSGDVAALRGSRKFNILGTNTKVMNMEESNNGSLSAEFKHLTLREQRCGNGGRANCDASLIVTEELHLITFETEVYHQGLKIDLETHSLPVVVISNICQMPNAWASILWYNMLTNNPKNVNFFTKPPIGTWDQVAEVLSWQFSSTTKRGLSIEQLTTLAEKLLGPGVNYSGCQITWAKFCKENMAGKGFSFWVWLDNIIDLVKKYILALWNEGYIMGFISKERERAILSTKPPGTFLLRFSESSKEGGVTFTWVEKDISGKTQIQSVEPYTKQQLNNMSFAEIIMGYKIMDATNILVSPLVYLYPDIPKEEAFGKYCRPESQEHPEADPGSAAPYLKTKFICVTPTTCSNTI

Take `O=C(N[C@H]1CC[C@H]2CC[C@@H](C(=O)N3CC(n4ccnc4)C3)N2C1=O)c1cc2cc(C(F)(F)P(=O)(O)O)ccc2s1` [Compound 732, ((2-(((3S,6S,8aS)-3-(3-(1H-imidazol-1-yl)azetidine-1-carbonyl)-5-oxooctahydro-indolizin-6-yl)carbamoyl)benzo [b]thiophen-5-yl)difluoromethyl) phosphonic acid]: the IC50 in assay [1] was 1 to 10 µM; in assay [2] (probe 5-FAM-Ap[…]-NH2 2 nM) it was 3 to 30 µM.

For `Cn1cc(C2CN(C(=O)[C@@H]3CC[C@@H]4CCC[C@H](NC(=O)c5cc6cc(C(F)P(=O)(O)O)ccc6s5)C(=O)N43)C2)c(C#N)n1` (stereo partly drawn) [Compound 734, ((2-(((3S,6S,9aS)-3-(3-(3-cyano-1-methyl-1H-pyrazol-4-yl)azetidine-1-carbonyl)-5-oxooctahydro-1H-pyrrolo[1,2-a]azepin-6-yl)carbamoyl)benzo [b]thiophen-5-yl)fluoromethyl) phosphonic acid], the IC50 was 0.1 to 1 µM in assay [1] and 0.3 to 3 µM in assay [2] (probe 5-FAM-Ap[…]-NH2 2 nM).

For the compound `C[C@@H]1C[C@H]2CC[C@@H](C(=O)N3CC(c4cnccc4N(C)C)C3)N2C(=O)[C@@H](NC(=O)c2cc3cc([C@H](F)P(=O)(O)O)ccc3s2)C1` [Compound 735, ((R)-(2-(((3S,6S,8S,9aR)-3-(3-(4-(dimethylamino)pyridin-3-yl)azetidine-1-carbonyl)-8-methyl-5-oxooctahydro-1H-pyrrolo[1,2-a]azepin-6-yl)carbamoyl)benzo [b]thiophen-5-yl)fluoromethyl) phosphonic acid], the values for the half-maximal inhibitory concentration (IC50) in assay [1] and in assay [2] (probe 5-FAM-Ap[…]-NH2 2 nM) were less than 0.1 µM and 3 to 30 µM, respectively.

With `C[C@H]1C[C@H]2CC[C@@H](C(=O)N3CC(c4cnccc4N(C)C)C3)N2C(=O)[C@@H](NC(=O)c2cc3cc([C@H](F)P(=O)(O)O)ccc3s2)C1` [Compound 736, ((R)-(2-(((3S,6S,8R,9aR)-3-(3-(4-(dimethylamino)pyridin-3-yl)azetidine-1-carbonyl)-8-methyl-5-oxooctahydro-1H-pyrrolo[1,2-a]azepin-6-yl)carbamoyl)benzo [b]thiophen-5-yl)fluoromethyl) phosphonic acid], the values for the IC50 in assay [1] and in assay [2] (probe 5-FAM-Ap[…]-NH2 2 nM) were less than 0.1 µM and 3 to 30 µM, respectively.

Regarding `C[C@@H]1[C@@H](c2cccnc2)CN1C(=O)[C@@H]1CC[C@@H]2CCC[C@H](NC(=O)c3cc4cc(C(F)P(=O)(O)O)ccc4s3)C(=O)N21` (stereo partly drawn) [Compound 737, (fluoro(2-(((3S,6S,9aS)-3-((2R,3S)-2-methyl-3-(pyridin-3-yl)azetidine-1-carbonyl)-5-oxooctahydro-1H-pyrrolo[1,2-a]azepin-6-yl)carbamoyl)benzo [b]thiophen-5-yl)methyl) phosphonic acid Or (fluoro(2-(((3S,6S,9aS)-3-((2S,3R)-2-methyl-3-(pyridin-3-yl)azetidine-1-carbonyl)-5-oxooctahydro-1H-pyrrolo[1,2-a]azepin-6-yl)carbamoyl)benzo [b]thiophen-5-yl)methyl) phosphonic acid], the 50% inhibitory concentration (IC50) in assay [1] was less than 0.1 µM; in assay [2] (probe 5-FAM-ApYKPFQDLI-NH2 2 nM), 3 to 30 µM.

Turning to `CN(C)c1ncncc1C1CN(C(=O)[C@@H]2CC[C@@H]3CCC[C@H](NC(=O)c4cc5cc(C(F)P(=O)(O)O)ccc5s4)C(=O)N32)C1` (stereo partly drawn) [Compound 739, ((2-(((3S,6S,9aS)-3-(3-(4-(dimethylamino)pyrimidin-5-yl)azetidine-1-carbonyl)-5-oxooctahydro-1H-pyrrolo[1,2-a]azepin-6-yl)carbamoyl)benzo [b]thiophen-5-yl)fluoromethyl) phosphonic acid], the values for the IC50 in assay [1] and in assay [2] (probe 5-FAM-Ap[…]-NH2 2 nM) were less than 0.1 µM and 3 to 30 µM, respectively.

For the compound `Cn1ncc(C2CN(C(=O)[C@@H]3CC[C@@H]4CCC[C@H](NC(=O)c5cc6cc(C(F)P(=O)(O)O)ccc6s5)C(=O)N43)C2)c1C#N` (stereo partly drawn) [Compound 743, ((2-(((3S,6S,9aS)-3-(3-(5-cyano-1-methyl-1H-pyrazol-4-yl)azetidine-1-carbonyl)-5-oxooctahydro-1H-pyrrolo[1,2-a]azepin-6-yl)carbamoyl)benzo [b]thiophen-5-yl)fluoromethyl) phosphonic acid], the figures for the IC50 in assay [1] and in assay [2] (probe 5-FAM-Ap[…]-NH2 2 nM) were 1 to 10 µM and 3 to 30 µM, respectively.

On to `COc1ccncc1C1CN(C(=O)[C@@H]2CC[C@@H]3C[C@@H](C)C[C@H](NC(=O)c4cc5cc([C@H](F)P(=O)(O)O)ccc5s4)C(=O)N32)C1` [Compound 749, ((R)-fluoro(2-(((3S,6S,8S,9aR)-3-(3-(4-methoxypyridin-3-yl)azetidine-1-carbonyl)-8-methyl-5-oxooctahydro-1H-pyrrolo[1,2-a]azepin-6-yl)carbamoyl)benzo [b]thiophen-5-yl)methyl) phosphonic acid], for which the 50% inhibitory concentration (IC50) in assay [1] is less than 0.1 µM; in assay [2] (probe 5-FAM-Ap[…]-NH2 2 nM) it was 3 to 30 µM.

In the case of `O=C(N[C@H]1CCC[C@H]2CC[C@@H](C(=O)N3CC(c4cnccc4N4CCOCC4)C3)N2C1=O)c1cc2cc(CP(=O)(O)O)ccc2s1` [Compound 750, ((2-(((3S,6S,9aS)-3-(3-(4-morpholinopyridin-3-yl)azetidine-1-carbonyl)-5-oxooctahydro-1H-pyrrolo[1,2-a]azepin-6-yl)carbamoyl)benzo [b]thiophen-5-yl)methyl) phosphonic acid], the 50% inhibitory concentration (IC50) is less than 0.1 µM in assay [1] and 3 to 30 µM in assay [2] (probe 5-FAM-Ap[…]-NH2 2 nM).

Consider `Cn1ncc(F)c1C1CN(C(=O)[C@@H]2CC[C@@H]3CCC[C@H](NC(=O)c4cc5cc(C(F)P(=O)(O)O)ccc5s4)C(=O)N32)C1` (stereo partly drawn) [Compound 751, (fluoro(2-(((3S,6S,9aS)-3-(3-(4-fluoro-1-methyl-1H-pyrazol-5-yl)azetidine-1-carbonyl)-5-oxooctahydro-1H-pyrrolo[1,2-a]azepin-6-yl)carbamoyl)benzo [b]thiophen-5-yl)methyl) phosphonic acid], for which the half-maximal inhibitory concentration (IC50) in assay [1] is 0.1 to 1 µM; in assay [2] (probe 5-FAM-Ap[…]-NH2 2 nM) it was 3 to 30 µM.

`Cn1cc(F)c(C2CN(C(=O)[C@@H]3CC[C@@H]4CCC[C@H](NC(=O)c5cc6cc(C(F)P(=O)(O)O)ccc6s5)C(=O)N43)C2)n1` (stereo partly drawn) [Compound 754, (fluoro(2-(((3S,6S,9aS)-3-(3-(4-fluoro-1-methyl-1H-pyrazol-3-yl)azetidine-1-carbonyl)-5-oxooctahydro-1H-pyrrolo[1,2-a]azepin-6-yl)carbamoyl)benzo [b]thiophen-5-yl)methyl) phosphonic acid]: the IC50 is 1 to 10 µM in assay [1] and 3 to 30 µM in assay [2] (probe 5-FAM-Ap[…]-NH2 2 nM).

As for `O=C(N[C@H]1CCC[C@H]2CC[C@@H](C(=O)N3CC(c4cscc4F)C3)N2C1=O)c1cc2cc(C(F)P(=O)(O)O)ccc2s1` (stereo partly drawn) [Compound 757, (fluoro(2-(((3S,6S,9aS)-3-(3-(4-fluorothiophen-3-yl)azetidine-1-carbonyl)-5-oxooctahydro-1H-pyrrolo[1,2-a]azepin-6-yl)carbamoyl)benzo [b]thiophen-5-yl)methyl) phosphonic acid], the half-inhibitory concentration (IC50) in assay [1] lay in the range of 0.1 to 1 µM; in assay [2] (probe 5-FAM-Ap[…]-NH2 2 nM), 3 to 30 µM.

With `CC1C[C@H]2CC[C@@H](C(=O)N3CC(c4cccnc4)C3)N2C(=O)[C@@H](NC(=O)c2cc3cc(C(F)(F)P(=O)(O)O)ccc3s2)C1` (stereo partly drawn) [Compound 759, (difluoro(2-(((3S,6S,9aR)-8-methyl-5-oxo-3-(3-(pyridin-3-yl)azetidine-1-carbonyl)octahydro-1H-pyrrolo[1,2-a]azepin-6-yl)carbamoyl)benzo [b]thiophen-5-yl)methyl) phosphonic acid], the IC50 is more than 10 µM in assay [1] and 0.3 to 3 µM in assay [2] (probe 5-FAM-Ap[…]-NH2 2 nM).

For `O=C(N[C@H]1CCC[C@H]2CC[C@@H](C(=O)N3CCC(c4cc[nH]n4)CC3)N2C1=O)c1cc2cc(C(F)P(=O)(O)O)ccc2s1` (stereo partly drawn) [Compound 760, ((2-(((3S,6S,9aS)-3-(4-(1H-pyrazol-3-yl)piperidine-1-carbonyl)-5-oxooctahydro-1H-pyrrolo[1,2-a]azepin-6-yl)carbamoyl)benzo [b]thiophen-5-yl)fluoromethyl) phosphonic acid], the IC50 is 1 to 10 µM in assay [1] and 3 to 30 µM in assay [2] (probe 5-FAM-Ap[…]-NH2 2 nM).

Take `O=C(N[C@H]1CCCC[C@H]2CC[C@@H](C(=O)N3CC(NCC(F)F)(c4ccccn4)C3)N2C1=O)c1cc2cc(C(F)P(=O)(O)O)ccc2s1` (stereo partly drawn) [Compound 761, ((2-(((3S,6S,10aS)-3-(3-((2,2-difluoroethyl)amino)-3-(pyridin-2-yl)azetidine-1-carbonyl)-5-oxodecahydropyrrolo[1,2-a]azocin-6-yl)carbamoyl)benzo [b]thiophen-5-yl)fluoromethyl) phosphonic acid]: the results for the concentration for half-maximal inhibition (IC50) in assay [1] and in assay [2] (probe 5-FAM-Ap[…]-NH2 2 nM) were less than 0.1 µM and 3 to 30 µM, respectively.
